From patent publication US4812472A, “Isoxazole compounds and pharmaceutical compositions containing them for treatment and prophylaxis of retroviruses diseases” (Chemie Linz Akteingesellschaft, priority 1985, dated 1989)
In brackets after ≈: the same amount, converted by molar mass.

Tests used:
Rhino type 16 = assay: Virus inhibition test (MIC); type: cell-based, rhinovirus type 16; conditions: Enterovirus, in vitro, read-out: Minimum inhibitory conc. (MIC)
Rhino type 48 = assay: Virus inhibition test (MIC); type: cell-based, rhinovirus type 48; conditions: Enterovirus, in vitro, read-out: Minimum inhibitory conc. (MIC)
Rhino type 26 = assay: Virus inhibition test (MIC); type: cell-based, rhinovirus type 26; conditions: Enterovirus, in vitro, read-out: Minimum inhibitory conc. (MIC)
Polio type 2 = assay: microbe, parasite or virus in culture; type: cell-based, poliovirus type 2; conditions: Enterovirus C, read-out: Minimum inhibitory conc. (MIC)
Rhino type 32 = assay: Virus inhibition test (MIC); type: cell-based, rhinovirus type 32; conditions: Enterovirus, in vitro, read-out: Minimum inhibitory conc. (MIC)
Echo type B-9 = assay: Virus inhibition test (MIC); type: cell-based, echovirus type B-9; conditions: Echovirus, in vitro, read-out: Minimum inhibitory conc. (MIC)
[1] = Toxicity control, minimum toxic concentration (MTC); type: cell-based; conditions: cell density still lower than in the cell control
Rhino type 37 = assay: Virus inhibition test (MIC); type: cell-based, rhinovirus type 37; conditions: Enterovirus, in vitro, read-out: Minimum inhibitory conc. (MIC)
Rhino type 55 = assay: Virus inhibition test (MIC); type: cell-based, rhinovirus type 55; conditions: Enterovirus, in vitro, read-out: Minimum inhibitory conc. (MIC)
Rhino type 3 = assay: Virus inhibition test (MIC); type: cell-based, rhinovirus type 3; conditions: Enterovirus, in vitro, read-out: Minimum inhibitory conc. (MIC)
ATH8 cell viability = conditions: human, ath8 cells
HIV (HTLV-IIIB) = assay: microbe, parasite or virus in culture; type: cell-based

Q: Which MIC (Rhino type 16) does the source give for `Cc1cc(CCCCCCCOc2csc(C3=NCCO3)c2)on1` [Compound B, 5-(7-(2-(4,5-dihydro-2-oxazolyl)-4-thienyl)oxyheptyl)-3-methyl-isoxazole] here?
A: 1 mg/L (≈ 2.87 µM)

Q: What about the MIC (Rhino type 48) of the same compound?
A: 1 mg/L (≈ 2.87 µM)

Q: And the MIC (Rhino type 26)?
A: 1 mg/L (≈ 2.87 µM)

Q: And the MIC (Polio type 2)?
A: 1 mg/L (≈ 2.87 µM)

Q: And the MIC (Rhino type 32)?
A: 3 mg/L (≈ 8.61 µM)

Q: What about the MIC (Echo type B-9) of the same compound?
A: 1 mg/L (≈ 2.87 µM)

Q: And the MCC [1]?
A: 10 µg/mL

Q: And the MIC (Rhino type 37)?
A: 0.03 mg/L (≈ 0.0861 µM)

Q: What about the MIC (Rhino type 55) of the same compound?
A: 0.3 mg/L (≈ 0.861 µM)

Q: And the MIC (Rhino type 3)?
A: 0.1 mg/L (≈ 0.287 µM)

Q: For `Cc1cc(CCCCCCCOc2ccc(C3=NCCO3)s2)on1` [Compound A, 5-(7-(5-(4,5-dihydro-2-oxazolyl)-2-thienyl)-oxyheptyl)-3-methyl-isoxazole], which MIC (Rhino type 16) is on record?
A: 0.3 mg/L (≈ 0.861 µM)

Q: What about the MIC (Rhino type 48) of the same compound?
A: 0.1 mg/L (≈ 0.287 µM)

Q: What about the MIC (Rhino type 26) of the same compound?
A: 0.3 mg/L (≈ 0.861 µM)

Q: What about the MIC (Polio type 2) of the same compound?
A: 0.1 mg/L (≈ 0.287 µM)

Q: What about the MIC (Rhino type 32) of the same compound?
A: 1 mg/L (≈ 2.87 µM)

Q: And the MIC (Echo type B-9)?
A: 0.03 mg/L (≈ 0.0861 µM)

Q: What about the MCC [1] of the same compound?
A: 10 µg/mL

Q: What about the CC50 (ATH8 cell viability) of the same compound?
A: 35 µM

Q: And the CC50 at 240 h (ATH8 cell viability)?
A: 35 µM

Q: What about the MIC (Rhino type 37) of the same compound?
A: 0.03 mg/L (≈ 0.0861 µM)

Q: And the MIC (Rhino type 55)?
A: 0.3 mg/L (≈ 0.861 µM)

Q: What about the MIC (Rhino type 3) of the same compound?
A: 0.03 mg/L (≈ 0.0861 µM)

Q: And the “inhibitory effect on HIV-induced cytopathogenicity in ATH8 cells” value (HIV (HTLV-IIIB); ATH8 cells)?
A: marked inhibitory effect

Q: What about the “ID50/MIC50 (in vitro therapeutic index)” value (HIV (HTLV-IIIB); ATH8 cells, day 6-7 after virus inoculation) of the same compound?
A: 175

Q: What about the “ID50/MIC50 (in vitro therapeutic index)” value (HIV (HTLV-IIIB); ATH8 cells, day 10 after virus inoculation) of the same compound?
A: 175

Q: And the EC50 (HIV (HTLV-IIIB); Human immunodeficiency virus 1, IIIB, ATH-8, 168 h, read-out: MIC50)?
A: 0.2 µM
